Data reported in US12534439B2, “Xanthohumol derivatives and methods for making and using” (Oregon State University, priority 2021, dated 2026).

System: HFD-fed C57BL/6J mice
Experiment: Untargeted cortex LC-MS metabolomics
Type: in vivo
Details: cortex of HFD-fed mice
Experimental: Plasma and Cortex LC-MS Metabolomics. The left and right sides of the cortex were pooled and ground using liquid nitrogen. Cortex samples (approximately 30 mg) were extracted as previously described with slight modifications. Tissues were homogenized with 600 μL of cold 80% acetonitrile with 0.1% formic acid containing 0.2 μg/mL of dopamine-d4 (Sigma-Aldrich, St Louis, MO, USA) and 0.2 μg/mL of chlorpropamide (Sigma-Aldrich, St Louis, MO, USA) using a counter-top bullet blender for 2 min and centrifuged at 20 000 rpm for 10 minutes. Supernatants were transferred to high performance liquid chromatography (HPLC) vials for analysis.
LC-high-resolution mass spectrometry/MS. Data dependent acquisition in both negative and positive ion mode was conducted using a Shimadzu Nexera UPLC system coupled to an AB SCIEX TripleTOF 5600 mass spectrometer (AB SCIEX, Toronto, Canada). Chromatographic separation was conducted using an Inertsil Phenyl-3 column (4.6×150 mm, 100 Å, 5 μm; GL Sciences, Tokyo, Japan). Spray voltage was −4200 V for negative ion mode and 4500 V for positive ion mode acquisition. The injection volume was 3 μL. Metabolite identifications were performed using Progenesis QI software (V2.4.6911) with METLIN plugin V1.0.6499 (NonLinear Dynamics, United Kingdom). Progenesis QI was used for peak picking, retention time correction, data normalization, peak alignment, and metabolite annotations. Metabolites were detected in both ion modes; the one with the lowest coefficient of variation of the QC was kept.

SMILES: COc1cc(O)c(CC=C(C)C)c(O)c1C(=O)/C=C/c1ccc(O)cc1 [XN, xanthohumol]
- Ion intensities, Mean: 1,2-DIPALMITOYL-SN-GLYCEROL: 934.62
- Ion intensities, Mean: 1-Arachidonoyl-glycerophosphoinositol: 645.87
- Ion intensities, Mean: 1-Palmitoyl-2-linoleoyl PE: 1782.31
- Ion intensities, Mean: 2-Pyrrolidinone: 1091.46
- Ion intensities, Mean: 2′-DEOXYURIDINE 5′-MONOPHOSPHATE: 615.86
- Ion intensities, Mean: 3-Methyl-L-histidine: 495.48
- Ion intensities, Mean: 3-PHOSPHO-GLYCERIC ACID: 2094.74
- Ion intensities, Mean: 5-Acetylamino-6-amino-3-methyluracil: 108.09
- Ion intensities, Mean: 5-Methylcytidine: 6615.71
- Ion intensities, Mean: 12-HYDROXYDODECANOIC-ACID: 2479.58
- Ion intensities, Mean: 20-Hydroxy-PGE2: 9703.49
- Ion intensities, Mean: 27-Hydroxycholesterol: 17882.79
- Ion intensities, Mean: ADENOSINE: 42044.83
- Ion intensities, Mean: ADENOSINE 5′-DIPHOSPHORIBOSE: 2010.85
- Ion intensities, Mean: ADENOSINE 5′-MONOPHOSPHATE: 75745.39
- Ion intensities, Mean: ADENOSINE-5′-DIPHOSPHOGLUCOSE: 924.21
- Ion intensities, Mean: ADP: 1070.27
- Ion intensities, Mean: AMINOADIPATE: 211.18
- Ion intensities, Mean: ASCORBATE: 2138.35
- Ion intensities, Mean: ASPARTATE: 1174.88
- Ion intensities, Mean: Acetylcarnitine: 11173.39
- Ion intensities, Mean: Acetylcholine: 1788.61
- Ion intensities, Mean: Adenine: 1575.62
- Ion intensities, Mean: Adenylosuccinate: 482.18
- Ion intensities, Mean: Adenylsuccinic acid: 1871.57
- Ion intensities, Mean: Arachidonic acid: 25496.26
- Ion intensities, Mean: Arachidonic acid ethyl ester: 417.92
- Ion intensities, Mean: Arginine: 1863.90
- Ion intensities, Mean: Aspartic acid: 8381.28
- Ion intensities, Mean: BILIVERDIN: 251.38
- Ion intensities, Mean: CARNITINE: 11992.59
- Ion intensities, Mean: CDP-Ethanolamine: 303.02
- Ion intensities, Mean: CHENODEOXYCHOLATE: 5290.32
- Ion intensities, Mean: CITRATE: 997.79
- Ion intensities, Mean: CMP: 586.09
- Ion intensities, Mean: Carnosine: 929.30
- Ion intensities, Mean: Choline: 7326.72
- Ion intensities, Mean: Creatine: 81660.56
- Ion intensities, Mean: Cysteineglutathione disulfide: 1321.30
- Ion intensities, Mean: Cytidine: 766.86
- Ion intensities, Mean: Cytidine 2′,3′-cyclic phosphate: 419.79
- Ion intensities, Mean: Cytidine diphosphate choline (CDPcholine): 2132.21
- Ion intensities, Mean: D-GLUCOSE 6-PHOSPHATE: 54.37
- Ion intensities, Mean: D-Glucaro-1,4-lactone: 1852.68
- Ion intensities, Mean: D-RIBOSE 5-PHOSPHATE: 119.65
- Ion intensities, Mean: DESMOSTEROL: 16777.33
- Ion intensities, Mean: DIHYDROOROTATE: 129.45
- Ion intensities, Mean: Deoxycytidine: 405.53
- Ion intensities, Mean: Deoxyguanosine: 2552.08
- Ion intensities, Mean: Docosahexaenoic acid: 3528.63
- Ion intensities, Mean: Docosenamide: 22701.50
- Ion intensities, Mean: Dodecanedioic acid: 332.32
- Ion intensities, Mean: ERUCIC ACID: 114.42
- Ion intensities, Mean: ETHANOLAMINE PHOSPHATE: 361.87
- Ion intensities, Mean: Ergothioneine: 433.26
- Ion intensities, Mean: Ethyl nicotinate: 74.78
- Ion intensities, Mean: GLUTAMIC ACID: 7047.98
- Ion intensities, Mean: GLUTAMINE: 18241.11
- Ion intensities, Mean: GUANOSINE 5′-MONOPHOSPHATE: 2052.93
- Ion intensities, Mean: Glutamate: 45779.91
- Ion intensities, Mean: Glutathione: 194624.55
- Ion intensities, Mean: Glycerophosphocholine: 104911.40
- Ion intensities, Mean: Guanosine monophosphate: 482.20
- Ion intensities, Mean: HEPTADECANOATE: 24.77
- Ion intensities, Mean: HISTIDINE: 901.19
- Ion intensities, Mean: Homocarnosine: 433.96
- Ion intensities, Mean: Homoserine: 952.74
- Ion intensities, Mean: Hydroxybutyric acid: 2561.64
- Ion intensities, Mean: Hydroxyphenethylamine: 3489.46
- Ion intensities, Mean: Hypoxanthine: 100.45
- Ion intensities, Mean: Hypusine: 94.62
- Ion intensities, Mean: ISOCITRIC ACID: 2099.31
- Ion intensities, Mean: ISOLEUCINE: 1271.60
- Ion intensities, Mean: Indoleacetaldehyde: 565.25
- Ion intensities, Mean: Inosine: 1426.47
- Ion intensities, Mean: Inosine 5′-monophosphate (IMP): 3551.74
- Ion intensities, Mean: Isostearic acid: 2314.30
- Ion intensities, Mean: L-2-Amino-5-hydroxypentanoicacid: 1771.05
- Ion intensities, Mean: L-OLEOYL-RAC-GLYCEROL: 3415.51
- Ion intensities, Mean: LACTATE: 3374.25
- Ion intensities, Mean: LAUROYLCARNITINE: 384.69
- Ion intensities, Mean: LEUKOTRIENE B4: 49.50
- Ion intensities, Mean: LYSINE: 51.50
- Ion intensities, Mean: Lathosterol: 23593.87
- Ion intensities, Mean: Lipoamide: 70.91
- Ion intensities, Mean: MALATE: 1271.76
- Ion intensities, Mean: Methionine: 1365.89
- Ion intensities, Mean: Methylthioadenosine: 2473.94
- Ion intensities, Mean: Myristoylcarnitine: 1742.03
- Ion intensities, Mean: N,N-dimethyl-Safingol: 638.46
- Ion intensities, Mean: N-(1-Deoxy-1-fructosyl) serine: 3036.19
- Ion intensities, Mean: N-ACETYL-L-ASPARTICACID: 24960.43
- Ion intensities, Mean: N-ACETYLNEURAMINATE: 817.62
- Ion intensities, Mean: N-Acetyl-Glutamic acid: 154.68
- Ion intensities, Mean: N-Acetyl-L-alanine: 1997.71
- Ion intensities, Mean: N-Acetylaspartylglutamic acid: 2179.47
- Ion intensities, Mean: N-Acetylglutamine: 273.18
- Ion intensities, Mean: N-Acetylisoputreanine: 99.54
- Ion intensities, Mean: N-Acetyllactosamine: 308.43
- Ion intensities, Mean: N-Linoleoyl GABA: 57.01
- Ion intensities, Mean: N-Methyl-Glutamate: 2277.43
- Ion intensities, Mean: N-a-Acetyl-Arginine: 175.03
- Ion intensities, Mean: NAD: 532.29
- Ion intensities, Mean: NE,NE,NE-TRIMETHYLLYSINE: 2830.12
- Ion intensities, Mean: Niacinamide: 4607.66
- Ion intensities, Mean: Nicotinamide adenine dinucleotide (NAD): 2094413
- Ion intensities, Mean: O-Phosphoethanolamine: 497.23
- Ion intensities, Mean: Octadecenoic acid: 202.97
- Ion intensities, Mean: Oleamide: 4025.45
- Ion intensities, Mean: Oxidized glutathione: 2115.40
- Ion intensities, Mean: PALMITATE: 1472.32
- Ion intensities, Mean: PALMITOLEIC ACID: 62.02
- Ion intensities, Mean: PANTOTHENIC ACID: 442.74
- Ion intensities, Mean: PETROSELINIC ACID: 220.71
- Ion intensities, Mean: PHENYLALANINE: 2371.34
- Ion intensities, Mean: PHENYLETHANOLAMINE: 1245.94
- Ion intensities, Mean: Phenylpropionylglycine: 294.60
- Ion intensities, Mean: Phosphocholine: 18574.78
- Ion intensities, Mean: Phosphodimethyl-ethanolamine: 161.80
- Ion intensities, Mean: Pipecolic acid: 422.43
- Ion intensities, Mean: Propionylcarnitine: 571.28
- Ion intensities, Mean: Pyridoxamine-5′-Phosphate: 377.92
- Ion intensities, Mean: RAC-GLYCEROL-L-MYRISTATE: 293.55
- Ion intensities, Mean: S-Adenosylhomocysteine: 397.04
- Ion intensities, Mean: S-Adenosylmethionine: 11562.08
- Ion intensities, Mean: SERINE: 355.32
- Ion intensities, Mean: SUCCINATE: 362.22
- Ion intensities, Mean: Spermic acid 1: 178.91
- Ion intensities, Mean: Spermidine: 5406.36
- Ion intensities, Mean: Sphinganine: 34.01
- Ion intensities, Mean: Sphinganine 1-phosphate: 2568.50
- Ion intensities, Mean: Sphingosine: 1322.46
- Ion intensities, Mean: Stearoylglycerophosphoserine: 2006.21
- Ion intensities, Mean: Succinyladenosine: 192.45
- Ion intensities, Mean: TAURINE: 6070.22
- Ion intensities, Mean: THEOPHYLLINE: 18.71
- Ion intensities, Mean: TRYPTOPHAN: 1131.43
- Ion intensities, Mean: Tetradecanedioic acid: 125.75
- Ion intensities, Mean: Tetrahydrodeoxycortisol: 3344.70
- Ion intensities, Mean: Threoninyl-Alanine: 227.23
- Ion intensities, Mean: Tyrosine: 4311.01
- Ion intensities, Mean: URIDINE: 1155.56
- Ion intensities, Mean: URIDINE 5′-DIPHOSPHOGALACTOSE: 462.04
- Ion intensities, Mean: URIDINE-5-MONOPHOSPHATE: 2103.27
- Ion intensities, Mean: Undecanedicarboxylic acid: 236.12
- Ion intensities, Mean: Uracil: 201.36
- Ion intensities, Mean: Uridine 5′-diphosphate: 248.01
- Ion intensities, Mean: Xanthine: 137.03
- Ion intensities, Mean: cyclic GMP-AMP: 1495.60
- Ion intensities, Mean: diethyltoluamide: 8.44
- Ion intensities, Mean: docosa-hexaenoic acid: 3095.80
- Ion intensities, Mean: hydroxyhexadecanoyl carnitine: 1430.92
- Ion intensities, Mean: hydroxyvitamin D3: 16859.40
- Ion intensities, Mean: sn-glycero-3-Phosphoethanolamine: 737.74
